Data reported in paper PMC2765170 (PLoS ONE, 2009).

Legend:
[1] = target: CoaE (M. tuberculosis dephosphocoenzyme A kinase, Rv1631) (Mycobacterium tuberculosis, UniProt P9WPA3); assay: biochemical; format: binding; settings: read-out: Ka (M^-1*104) (converted)
[2] = tested on: CC(C)(COP(=O)(O)OP(=O)(O)OC[C@H]1O[C@@H](n2cnc3c(N)ncnc32)[C@H](O)[C@@H]1O)[C@@H](O)C(=O)NCCC(=O)NCCS; assay: purified protein; settings: co-substrate ATP, MgCl2, 25°C
[3] = tested on: Nc1ncnc2c1ncn2[C@H]1C[C@H](O)[C@@H](COP(=O)(O)OP(=O)(O)OP(=O)(O)O)O1; assay: purified protein; settings: alternate phosphate donor, co-substrate DCoA
[4] = tested on: Nc1ncnc2c1ncn2[C@@H]1O[C@H](COP(=O)(O)OP(=O)(O)OP(=O)(O)O)[C@@H](O)[C@H]1O; assay: purified protein; settings: co-substrate DCoA, MgCl2, 25°C

CoaE (M. tuberculosis dephosphocoenzyme A kinase, Rv1631), sequence (P9WPA3 whole entry): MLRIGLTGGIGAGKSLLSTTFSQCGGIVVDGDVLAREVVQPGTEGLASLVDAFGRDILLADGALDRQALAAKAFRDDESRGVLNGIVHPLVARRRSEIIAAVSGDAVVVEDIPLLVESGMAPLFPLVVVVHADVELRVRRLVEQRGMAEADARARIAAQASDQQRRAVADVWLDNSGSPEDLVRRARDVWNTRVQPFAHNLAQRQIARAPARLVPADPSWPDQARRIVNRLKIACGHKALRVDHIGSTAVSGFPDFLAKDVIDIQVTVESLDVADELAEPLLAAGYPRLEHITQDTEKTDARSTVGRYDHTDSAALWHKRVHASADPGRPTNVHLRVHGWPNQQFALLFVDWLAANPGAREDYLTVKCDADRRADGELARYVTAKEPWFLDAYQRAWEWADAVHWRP

| Compound | Kd [1] [µM] | Km [2] [µM] | Km [3] [µM] | Km [4] [µM] |
| --- | --- | --- | --- | --- |
| Nc1ncnc2c1ncn2[C@@H]1O[C@H](COP(=O)(O)OP(=O)(O)O)[C@@H](O)[C@H]1O [ADP] | 49.3 |  |  |  |
| Nc1ccn([C@@H]2O[C@H](COP(=O)(O)OP(=O)(O)OP(=O)(O)O)[C@@H](O)[C@H]2O)c(=O)n1 [CTP] | 62.9 |  |  |  |
| Nc1ncnc2c1ncn2[C@H]1C[C@H](O)[C@@H](COP(=O)(O)OP(=O)(O)OP(=O)(O)O)O1 [dATP] | 57.5 |  |  |  |
| CoaE (M. tuberculosis dephosphocoenzyme A kinase, Rv1631) (Mycobacterium tuberculosis H37Rv) |  | 34.9 | 320 | 56.8 |
